For one series, the target named is T1, TRET1 (Polypedilum vanderplanki, UniProt A5LGM7).
T1 construct: ORF of either Tret1, DmTret1, AmTret1, AgTret1 or BmTret1 cDNA was amplified with PCR; expressed in transfected cells; host or cells: Xenopus laevis oocytes injected with cRNA
T1 sequence (A5LGM7 1-504): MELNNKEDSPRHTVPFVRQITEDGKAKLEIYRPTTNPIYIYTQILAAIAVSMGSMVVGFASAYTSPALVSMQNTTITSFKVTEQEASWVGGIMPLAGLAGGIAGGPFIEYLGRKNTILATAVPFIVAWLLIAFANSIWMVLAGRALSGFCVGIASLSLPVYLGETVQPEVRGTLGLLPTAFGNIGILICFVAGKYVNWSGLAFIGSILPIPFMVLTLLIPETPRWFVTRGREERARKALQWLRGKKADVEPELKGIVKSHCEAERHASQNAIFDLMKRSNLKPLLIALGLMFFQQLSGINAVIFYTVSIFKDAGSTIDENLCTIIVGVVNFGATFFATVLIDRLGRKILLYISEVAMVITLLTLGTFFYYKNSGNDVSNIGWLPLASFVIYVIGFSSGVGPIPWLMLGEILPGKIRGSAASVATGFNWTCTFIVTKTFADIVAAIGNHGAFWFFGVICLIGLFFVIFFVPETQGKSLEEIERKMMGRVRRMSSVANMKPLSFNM
The format is cell-based. The source says:
The capped RNA (cRNA) expression vector pTRET1-XbG-ev1 series was constructed as follows: ORF of either Tret1, DmTret1, AmTret1, AgTret1 or BmTret1 cDNA was amplified with PCR using specific primers containing Bgl II site at the 5′-end on each primer, respectively. The PCR products were digested with the restriction enzymes, and cloned into the site of Bgl II in pXbG-ev1 (Preston, G. M., et al. (1992) Science 256, 385-387). ORF of hGLUT1 cDNA was obtained by digestion of pSPMM1 with BamH I, and then subcloned into the site of Bgl II in pXbG-2. Template DNAs for cRNA synthesis were amplified from the corresponding cRNA expression vectors with a high fidelity DNA polymerase, KOD—Plus—, (TOYOBO). The cRNAs were synthesized with mMESSAGE mMACHINE T7 Kit (Ambion), and then purified with RNeasy MiniElute Cleanup kit (Qiagen).
Stage V or VI oocytes were extirpated from X. laevis females, and digested ovarian lobes with 0.2% (w/v) collagenase, type II (Sigma-Aldrich) in Ca^2+-free modified Barth's saline (MBS; 88.0 mM NaCl, 1.0 mM KCl, 2.4 mM NaHCO3, 15.0 mM Tris-Cl, 0.82 mM MgSO4, […] penicillin and streptomycin, pH7.6) at 15° C. for 3 h. The oocytes were microinjected with 40 nl of either 1 ng/nl of the TRET1::AcGFP1 or AcGFP1 cRNA, or nuclease-free water (Invitrogen) as a negative control. In order to express TRET1, the oocytes were incubated in MBS (containing 0.41 mM CaCl2) for 3-4 days after injection at 15° C. Fluorescence images of the oocytes injected with the cRNA were observed and analyzed with a fluorescence microscope BZ-8000 (KEYENCE).
All uptake assays for zero-trans trehalose and/or other sugars were performed using Xenopus oocytes expressing TRET1 at 15° C. in MBS containing appropriate concentrations of sugars. Sugar concentrations were determined using HPLC (Watanabe, M., et al. (2002) J Exp Biol 205, 2799-2802). All assays were carried out in triplicate.
Xenopus oocytes expressing either TRET1 or hGLUT1 were incubated in 105 mM of various sugars for 3 h. Tre: trehalose; Mal: maltose; Suc: sucrose; Lac: lactose; MAG: methyl-a-glucopyranoside; and 2-DOG: 2-deoxy-glucose (FIG. 3B).
In General, transporters contain two sub-classes: facilitated transporters and secondary active transporters. Activities of secondary active transporters are dependent on the electrochemical membrane potential resulting from the distribution of ions such as H^+. For example, proton-dependent MAL11/AGT1 can act only under acidic extracellular conditions (Stambuk, B. U., et al. (1996) Eur J Biochem 237, 876-881). On the other hand, facilitated transporters function independently of the electrochemical membrane potential. Xenopus oocytes expressing TRET1 were incubated in 105 mM trehalose at pH 4.2 and 7.6 for 3 h.
Xenopus oocytes expressing TRET1 were incubated in 105 mM trehalose with either control buffer (Mock; 0.1% acetone), or buffer containing various concentrations of nigericin (Na^+, K^+-ionophore), valinomycin (K^+-ionophore) or CCCP (H^+-ionophore, uncoupler) for 3 h.
In general, facilitated transporters enable their substrates to flow across membranes down concentration gradients. Xenopus oocytes expressing TRET1 were first incubated in 105 mM trehalose for 3 h, and then transferred into trehalose-free buffer and trehalose content was examined over time.
Xenopus oocytes expressing TRET1 were incubated in various concentrations of trehalose for 15 min. Uptake data were fitted to the Michaelis-Menten and Eadie-Hofstee (inset of FIG. 9) equations.

Series [1] is described as follows: Degradation of trehalose in extracts of mammalian cells. The format is in vitro ADME. Particulars: extracts of CHO-K1, HuH-7, NIH3T3 cells, 3 h at 37° C., data not shown.

Take `OC[C@H]1O[C@H](O[C@H]2O[C@H](CO)[C@@H](O)[C@H](O)[C@H]2O)[C@H](O)[C@@H](O)[C@@H]1O` [trehalose]: the “time course of trehalose uptake into oocytes expressing TRET1” value on TRET1 (105 mM trehalose) is “increased linearly for at least 6 h”. In addition, the “direction of trehalose transport after reversal of concentration gradient” value at TRET1 (105 mM trehalose 3 h, then trehalose-free buffer) is listed as “shifted from an inward to outward direction”. The “pH-dependency of TRET1 trehalose transport” value at TRET1 (105 mM trehalose, pH 4.2 and 7.6, 3 h) is “acted over a wide extracellular pH range”. Moreover, at TRET1 (Xenopus oocytes expressing TRET1), the “Vmax of TRET1 for trehalose” value was 7.84±0.77 nmol/15 min/oocyte. In addition, the degradation of trehalose result in series [1] is on record as “No degradation”.

The values above are taken from patent US7892789B2, “Method of increasing cell permeability to trehalose by recombinantly producing a trehalose transporter” (priority 2007, dated 2011).
